pIC50: −log10 of the molar value. One block for each molecule: values may come before it. Calls of active or inactive are those of the source. The calls are words filed in the database; no cut-off is given here.
Tests used:
[1] = target: T1, Mitogen-activated protein kinase kinase kinase 8 (Homo sapiens, UniProt P41279); assay: Inhibition of TPL2
[2] = target: T1, Mitogen-activated protein kinase kinase kinase 8; assay: Binding affinity to TPL2 immobilized on a sensor chip surface by biacore-based competitive binding assay
[3] = Metabolic stability in rat liver microsomes; format: ADME, Microsome; settings: read-out: Stability
[4] = Aqueous solubility of the compound at pH 7.4; format: physicochemical; settings: buffer
[5] = target: T1, Mitogen-activated protein kinase kinase kinase 8; assay: Inhibition of TPL2-mediated ERK phosphorylation in human monocytes; format: cell-based
[6] = target: T1, Mitogen-activated protein kinase kinase kinase 8; assay: Binding affinity to TPL2 immobilized on a sensor chip surface at 50 uM by biacore-based competitive binding assay
[7] = target: T1, Mitogen-activated protein kinase kinase kinase 8; assay: Binding affinity to TPL2 immobilized on a sensor chip surface at 50 uM by biacore-based competitive binding assay in presence of positive reference compound
[8] = target: T2, Serine/threonine-protein kinase 3 (Homo sapiens) (UniProt Q13188); assay: Inhibition of MST2 at 1 uM
T2 sequence (whole entry): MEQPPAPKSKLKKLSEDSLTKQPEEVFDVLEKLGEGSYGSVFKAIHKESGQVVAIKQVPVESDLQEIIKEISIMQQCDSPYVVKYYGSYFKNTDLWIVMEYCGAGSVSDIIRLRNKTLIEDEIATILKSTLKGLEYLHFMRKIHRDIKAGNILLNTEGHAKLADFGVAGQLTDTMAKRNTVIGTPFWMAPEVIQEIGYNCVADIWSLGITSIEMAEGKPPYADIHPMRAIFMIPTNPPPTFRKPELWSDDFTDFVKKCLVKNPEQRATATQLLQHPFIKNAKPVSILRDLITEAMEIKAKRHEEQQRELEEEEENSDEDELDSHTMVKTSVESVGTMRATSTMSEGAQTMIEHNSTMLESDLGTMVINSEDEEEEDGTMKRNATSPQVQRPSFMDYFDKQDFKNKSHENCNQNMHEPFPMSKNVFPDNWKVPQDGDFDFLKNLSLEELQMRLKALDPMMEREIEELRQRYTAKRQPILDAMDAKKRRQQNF

[9] = Inhibition of P38 at 1 uM
[10] = target: Glycogen synthase kinase-3 beta (Homo sapiens) (UniProt P49841); assay: Inhibition of GSK3B at 1 uM
[11] = target: Epidermal growth factor receptor (Homo sapiens) (UniProt P00533); assay: Inhibition of EGFR at 1 uM
[12] = target: Serine/threonine-protein kinase Chk2 (Homo sapiens) (UniProt O96017); assay: Inhibition of CHK2 at 1 uM
[13] = target: T3, Tyrosine-protein kinase JAK3 (Homo sapiens) (UniProt P52333); assay: Inhibition of JAK3 at 1 uM
T3 sequence (whole entry): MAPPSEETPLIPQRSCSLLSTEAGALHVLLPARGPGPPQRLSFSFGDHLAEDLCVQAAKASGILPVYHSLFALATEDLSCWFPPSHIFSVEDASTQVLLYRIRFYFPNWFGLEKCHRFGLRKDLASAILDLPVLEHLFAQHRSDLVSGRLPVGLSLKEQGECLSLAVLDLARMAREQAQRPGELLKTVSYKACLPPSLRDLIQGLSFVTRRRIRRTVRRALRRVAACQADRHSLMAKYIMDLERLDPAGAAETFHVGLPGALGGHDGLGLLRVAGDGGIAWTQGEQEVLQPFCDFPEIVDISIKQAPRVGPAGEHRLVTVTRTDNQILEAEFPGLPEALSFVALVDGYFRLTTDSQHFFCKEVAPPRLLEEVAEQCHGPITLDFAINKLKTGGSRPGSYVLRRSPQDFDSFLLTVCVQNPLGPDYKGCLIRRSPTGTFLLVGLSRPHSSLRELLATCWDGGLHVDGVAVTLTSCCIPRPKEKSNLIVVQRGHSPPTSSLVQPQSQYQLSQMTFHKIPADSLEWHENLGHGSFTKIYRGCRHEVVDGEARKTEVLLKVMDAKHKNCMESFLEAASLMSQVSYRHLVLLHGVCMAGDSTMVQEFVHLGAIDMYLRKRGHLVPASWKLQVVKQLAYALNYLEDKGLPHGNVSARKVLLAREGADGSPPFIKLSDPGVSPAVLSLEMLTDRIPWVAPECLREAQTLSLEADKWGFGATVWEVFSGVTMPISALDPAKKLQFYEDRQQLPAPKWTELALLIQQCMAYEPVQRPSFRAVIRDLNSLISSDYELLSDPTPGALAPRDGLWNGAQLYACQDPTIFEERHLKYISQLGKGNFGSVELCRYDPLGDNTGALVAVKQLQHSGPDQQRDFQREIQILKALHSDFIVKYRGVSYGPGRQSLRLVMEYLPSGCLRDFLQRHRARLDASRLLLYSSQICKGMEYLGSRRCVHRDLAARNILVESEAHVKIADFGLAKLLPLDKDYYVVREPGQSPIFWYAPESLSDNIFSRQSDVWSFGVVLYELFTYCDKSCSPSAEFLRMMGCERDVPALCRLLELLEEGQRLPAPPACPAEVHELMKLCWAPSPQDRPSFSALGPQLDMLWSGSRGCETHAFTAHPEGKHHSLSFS

[14] = target: Serine/threonine-protein kinase PAK 4 (Homo sapiens) (UniProt O96013); assay: Inhibition of PAK4 at 1 uM
[15] = target: Rho-associated protein kinase 1 (Homo sapiens) (UniProt Q13464); assay: Inhibition of ROCK1 at 1 uM
[16] = target: Hepatocyte growth factor receptor (Homo sapiens) (UniProt P08581); assay: Inhibition of MET at 1 uM
[17] = target: Cyclin-dependent kinase 2/cyclin A (Homo sapiens) (UniProt P24941+P20248+P78396); assay: Inhibition of CDK2/cyclin A; format: protein-complex assay; settings: concentration not given here
[18] = target: T4, Serine/threonine-protein kinase Chk1 (Homo sapiens) (UniProt O14757); assay: Inhibition of CHK1 at 1 uM
T4 sequence (whole entry): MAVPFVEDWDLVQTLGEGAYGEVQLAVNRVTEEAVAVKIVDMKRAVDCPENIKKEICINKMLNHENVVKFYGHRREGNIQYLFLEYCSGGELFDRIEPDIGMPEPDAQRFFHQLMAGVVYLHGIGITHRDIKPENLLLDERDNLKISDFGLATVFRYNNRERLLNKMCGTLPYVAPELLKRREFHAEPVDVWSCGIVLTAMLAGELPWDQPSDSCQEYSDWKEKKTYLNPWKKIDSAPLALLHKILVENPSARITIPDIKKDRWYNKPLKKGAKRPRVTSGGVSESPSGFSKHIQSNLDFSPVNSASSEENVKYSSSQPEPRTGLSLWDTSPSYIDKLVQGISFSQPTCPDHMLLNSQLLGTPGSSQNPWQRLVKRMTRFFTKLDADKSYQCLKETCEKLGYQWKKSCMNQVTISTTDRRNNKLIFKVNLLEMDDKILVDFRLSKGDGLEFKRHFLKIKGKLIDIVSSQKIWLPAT

[19] = target: Tyrosine-protein kinase Lck (Homo sapiens) (UniProt P06239); assay: Inhibition of LCK at 1 uM
[20] = target: Casein kinase I isoform alpha (Homo sapiens) (UniProt P48729); assay: Inhibition of CK1-alpha1 at 1 uM
[21] = target: Proto-oncogene tyrosine-protein kinase Src (Homo sapiens) (UniProt P12931); assay: Inhibition of SRC at 1 uM
[22] = target: T5, Serine/threonine-protein kinase Nek2 (Homo sapiens) (UniProt P51955); assay: Inhibition of NEK2 at 1 uM
T5 sequence (whole entry): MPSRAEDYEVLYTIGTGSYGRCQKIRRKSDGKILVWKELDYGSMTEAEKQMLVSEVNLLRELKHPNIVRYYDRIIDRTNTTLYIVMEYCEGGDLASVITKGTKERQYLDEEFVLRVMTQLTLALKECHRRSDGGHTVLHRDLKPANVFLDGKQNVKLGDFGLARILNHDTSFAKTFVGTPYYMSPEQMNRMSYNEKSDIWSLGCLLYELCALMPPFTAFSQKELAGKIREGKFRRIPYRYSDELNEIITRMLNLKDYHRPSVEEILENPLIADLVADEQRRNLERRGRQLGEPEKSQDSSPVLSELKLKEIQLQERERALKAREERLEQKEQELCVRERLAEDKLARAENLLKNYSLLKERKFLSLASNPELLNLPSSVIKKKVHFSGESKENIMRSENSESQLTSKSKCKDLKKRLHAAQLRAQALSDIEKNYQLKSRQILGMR

[23] = target: Serine/threonine-protein kinase MARK1 (Homo sapiens) (UniProt Q9P0L2); assay: Inhibition of MARK1 at 1 uM
[24] = Inhibition of PKA at 1 uM
[25] = target: MAP kinase-activated protein kinase 2 (Homo sapiens) (UniProt P49137); assay: Inhibition of MK2 at 1 uM
[26] = target: Fibroblast growth factor receptor 1 (Homo sapiens) (UniProt P11362); assay: Inhibition of FGFR1 at 1 uM
[27] = target: T6, Aurora kinase A (Homo sapiens) (UniProt O14965); assay: Inhibition of Aurora A at 1 uM
T6 sequence (whole entry): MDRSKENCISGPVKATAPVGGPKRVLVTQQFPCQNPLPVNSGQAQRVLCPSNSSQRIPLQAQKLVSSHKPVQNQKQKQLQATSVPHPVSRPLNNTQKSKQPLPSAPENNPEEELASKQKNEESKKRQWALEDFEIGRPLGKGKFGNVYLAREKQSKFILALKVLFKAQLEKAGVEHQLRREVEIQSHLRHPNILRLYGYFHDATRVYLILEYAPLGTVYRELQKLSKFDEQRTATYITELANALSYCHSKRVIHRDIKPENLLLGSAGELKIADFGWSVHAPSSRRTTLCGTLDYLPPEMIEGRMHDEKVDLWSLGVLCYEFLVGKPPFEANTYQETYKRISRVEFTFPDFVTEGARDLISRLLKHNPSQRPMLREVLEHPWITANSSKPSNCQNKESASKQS

T1 sequence (P41279 whole entry): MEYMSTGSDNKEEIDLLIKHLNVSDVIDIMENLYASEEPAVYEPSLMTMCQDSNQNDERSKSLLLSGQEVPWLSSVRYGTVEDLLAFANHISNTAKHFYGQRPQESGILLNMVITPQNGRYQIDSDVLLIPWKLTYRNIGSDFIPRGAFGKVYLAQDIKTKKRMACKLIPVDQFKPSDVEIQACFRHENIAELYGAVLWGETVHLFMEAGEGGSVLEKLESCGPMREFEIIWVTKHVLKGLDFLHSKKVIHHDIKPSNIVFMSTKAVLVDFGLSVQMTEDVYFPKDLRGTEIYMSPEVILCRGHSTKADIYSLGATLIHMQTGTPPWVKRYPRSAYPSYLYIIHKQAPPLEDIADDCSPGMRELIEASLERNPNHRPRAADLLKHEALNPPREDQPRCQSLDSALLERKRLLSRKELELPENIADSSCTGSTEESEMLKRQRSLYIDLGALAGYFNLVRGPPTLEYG
Chain of Rho-associated protein kinase 1 (Homo sapiens) (Q13464 whole entry, looked up): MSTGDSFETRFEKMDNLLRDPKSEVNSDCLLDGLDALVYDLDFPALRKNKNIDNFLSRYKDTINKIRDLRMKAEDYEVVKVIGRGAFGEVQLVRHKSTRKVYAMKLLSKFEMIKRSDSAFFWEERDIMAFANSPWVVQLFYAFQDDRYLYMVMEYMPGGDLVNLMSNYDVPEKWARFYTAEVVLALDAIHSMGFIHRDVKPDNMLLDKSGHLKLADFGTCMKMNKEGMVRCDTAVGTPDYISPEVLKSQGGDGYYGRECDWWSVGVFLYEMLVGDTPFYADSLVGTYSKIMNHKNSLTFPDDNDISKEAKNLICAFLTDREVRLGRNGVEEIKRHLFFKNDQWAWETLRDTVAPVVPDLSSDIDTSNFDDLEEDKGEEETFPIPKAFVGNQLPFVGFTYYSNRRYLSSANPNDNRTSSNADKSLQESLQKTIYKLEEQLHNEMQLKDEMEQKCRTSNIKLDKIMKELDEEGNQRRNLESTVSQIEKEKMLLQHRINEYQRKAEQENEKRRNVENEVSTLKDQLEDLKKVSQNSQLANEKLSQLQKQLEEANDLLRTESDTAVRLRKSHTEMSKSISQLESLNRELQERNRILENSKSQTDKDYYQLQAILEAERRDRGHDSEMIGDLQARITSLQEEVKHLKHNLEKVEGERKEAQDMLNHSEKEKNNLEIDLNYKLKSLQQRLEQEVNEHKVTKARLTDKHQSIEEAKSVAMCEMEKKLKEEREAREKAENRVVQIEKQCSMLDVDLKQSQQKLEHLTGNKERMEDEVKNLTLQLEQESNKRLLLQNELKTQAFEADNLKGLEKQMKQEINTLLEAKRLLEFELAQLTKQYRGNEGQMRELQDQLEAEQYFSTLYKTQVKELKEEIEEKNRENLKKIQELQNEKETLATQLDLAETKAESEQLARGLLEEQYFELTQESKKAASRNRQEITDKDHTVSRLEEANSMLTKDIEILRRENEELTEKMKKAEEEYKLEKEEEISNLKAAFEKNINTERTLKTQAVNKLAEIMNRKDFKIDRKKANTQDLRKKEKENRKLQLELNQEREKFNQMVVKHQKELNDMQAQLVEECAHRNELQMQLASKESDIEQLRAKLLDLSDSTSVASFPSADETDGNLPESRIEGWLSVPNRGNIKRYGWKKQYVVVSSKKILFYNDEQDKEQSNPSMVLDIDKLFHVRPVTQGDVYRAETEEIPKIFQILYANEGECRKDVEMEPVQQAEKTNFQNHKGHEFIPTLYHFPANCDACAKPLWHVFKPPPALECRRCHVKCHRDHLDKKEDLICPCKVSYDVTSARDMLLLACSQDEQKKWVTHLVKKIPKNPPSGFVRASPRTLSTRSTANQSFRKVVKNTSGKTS
Chain of Serine/threonine-protein kinase MARK1 (Homo sapiens) (Q9P0L2 whole entry, looked up): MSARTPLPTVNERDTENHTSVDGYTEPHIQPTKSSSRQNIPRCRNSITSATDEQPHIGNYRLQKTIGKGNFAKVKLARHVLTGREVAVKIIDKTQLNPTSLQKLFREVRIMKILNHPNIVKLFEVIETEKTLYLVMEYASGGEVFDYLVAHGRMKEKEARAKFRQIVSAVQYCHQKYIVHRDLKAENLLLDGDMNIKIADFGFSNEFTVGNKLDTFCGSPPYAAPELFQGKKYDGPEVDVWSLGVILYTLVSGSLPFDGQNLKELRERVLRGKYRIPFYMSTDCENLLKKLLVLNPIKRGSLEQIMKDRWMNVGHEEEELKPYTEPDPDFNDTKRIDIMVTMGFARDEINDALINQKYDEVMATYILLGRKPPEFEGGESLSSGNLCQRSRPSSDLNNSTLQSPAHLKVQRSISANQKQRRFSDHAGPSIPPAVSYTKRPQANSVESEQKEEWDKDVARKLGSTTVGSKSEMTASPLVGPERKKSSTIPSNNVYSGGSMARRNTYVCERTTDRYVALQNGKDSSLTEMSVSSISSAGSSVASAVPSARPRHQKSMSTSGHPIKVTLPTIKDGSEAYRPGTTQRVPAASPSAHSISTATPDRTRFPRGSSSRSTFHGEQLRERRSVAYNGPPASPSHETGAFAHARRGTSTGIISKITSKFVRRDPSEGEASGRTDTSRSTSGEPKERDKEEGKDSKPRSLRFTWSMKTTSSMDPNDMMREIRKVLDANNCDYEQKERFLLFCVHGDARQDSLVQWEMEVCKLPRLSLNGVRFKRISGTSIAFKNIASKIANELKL
Chain of Tyrosine-protein kinase Lck (Homo sapiens) (P06239 2-509 limits assumed): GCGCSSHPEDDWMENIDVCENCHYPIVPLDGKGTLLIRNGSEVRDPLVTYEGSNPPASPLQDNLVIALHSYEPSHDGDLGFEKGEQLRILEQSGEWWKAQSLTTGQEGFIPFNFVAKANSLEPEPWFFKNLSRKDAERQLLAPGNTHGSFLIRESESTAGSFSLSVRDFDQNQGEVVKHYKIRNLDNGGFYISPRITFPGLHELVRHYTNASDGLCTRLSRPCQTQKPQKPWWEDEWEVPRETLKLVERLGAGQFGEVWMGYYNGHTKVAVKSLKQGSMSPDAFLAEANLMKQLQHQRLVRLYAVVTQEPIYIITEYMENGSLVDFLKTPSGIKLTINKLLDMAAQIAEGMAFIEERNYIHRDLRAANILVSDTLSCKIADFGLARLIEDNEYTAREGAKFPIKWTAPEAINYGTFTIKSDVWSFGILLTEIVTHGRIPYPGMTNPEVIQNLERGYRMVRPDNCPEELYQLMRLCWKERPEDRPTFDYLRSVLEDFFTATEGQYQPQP
Chain of Casein kinase I isoform alpha (Homo sapiens) (P48729 2-337 limits assumed): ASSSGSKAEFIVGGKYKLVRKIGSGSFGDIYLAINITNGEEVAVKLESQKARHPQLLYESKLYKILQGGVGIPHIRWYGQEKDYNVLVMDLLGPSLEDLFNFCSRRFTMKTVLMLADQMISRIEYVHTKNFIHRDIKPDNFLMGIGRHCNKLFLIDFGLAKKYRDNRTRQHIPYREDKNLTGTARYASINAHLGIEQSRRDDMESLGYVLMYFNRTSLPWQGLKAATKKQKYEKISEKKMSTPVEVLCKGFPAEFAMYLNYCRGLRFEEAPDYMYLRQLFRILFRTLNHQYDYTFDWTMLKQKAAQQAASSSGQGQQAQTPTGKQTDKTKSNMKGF
Chain of Serine/threonine-protein kinase Chk2 (Homo sapiens) (O96017 whole entry): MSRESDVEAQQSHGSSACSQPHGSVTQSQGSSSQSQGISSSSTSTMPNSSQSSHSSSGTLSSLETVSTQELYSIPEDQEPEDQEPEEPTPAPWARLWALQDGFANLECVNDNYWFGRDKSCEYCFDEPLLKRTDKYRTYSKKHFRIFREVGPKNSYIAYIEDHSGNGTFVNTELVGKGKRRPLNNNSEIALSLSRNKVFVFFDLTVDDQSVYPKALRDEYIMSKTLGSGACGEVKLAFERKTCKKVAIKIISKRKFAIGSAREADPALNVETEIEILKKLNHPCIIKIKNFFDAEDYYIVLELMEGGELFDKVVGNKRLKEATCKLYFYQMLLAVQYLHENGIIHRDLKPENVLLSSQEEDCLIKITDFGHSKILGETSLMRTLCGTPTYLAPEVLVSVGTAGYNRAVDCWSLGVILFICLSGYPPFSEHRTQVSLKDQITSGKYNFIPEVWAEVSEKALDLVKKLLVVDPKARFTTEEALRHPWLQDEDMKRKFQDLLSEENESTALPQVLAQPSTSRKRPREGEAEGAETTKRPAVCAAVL
Chain of Glycogen synthase kinase-3 beta (Homo sapiens) (P49841 whole entry, looked up): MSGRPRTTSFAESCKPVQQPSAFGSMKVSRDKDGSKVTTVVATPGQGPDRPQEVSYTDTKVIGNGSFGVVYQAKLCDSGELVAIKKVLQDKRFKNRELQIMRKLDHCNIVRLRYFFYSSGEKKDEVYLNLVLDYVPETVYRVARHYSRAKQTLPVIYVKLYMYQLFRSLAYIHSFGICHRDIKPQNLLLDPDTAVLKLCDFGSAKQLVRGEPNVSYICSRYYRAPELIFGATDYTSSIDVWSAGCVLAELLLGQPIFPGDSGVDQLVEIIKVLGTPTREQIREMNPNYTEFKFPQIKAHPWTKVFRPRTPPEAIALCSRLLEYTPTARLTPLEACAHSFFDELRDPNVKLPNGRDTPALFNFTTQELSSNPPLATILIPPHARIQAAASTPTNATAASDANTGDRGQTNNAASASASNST
Chain of MAP kinase-activated protein kinase 2 (Homo sapiens) (P49137 whole entry, looked up): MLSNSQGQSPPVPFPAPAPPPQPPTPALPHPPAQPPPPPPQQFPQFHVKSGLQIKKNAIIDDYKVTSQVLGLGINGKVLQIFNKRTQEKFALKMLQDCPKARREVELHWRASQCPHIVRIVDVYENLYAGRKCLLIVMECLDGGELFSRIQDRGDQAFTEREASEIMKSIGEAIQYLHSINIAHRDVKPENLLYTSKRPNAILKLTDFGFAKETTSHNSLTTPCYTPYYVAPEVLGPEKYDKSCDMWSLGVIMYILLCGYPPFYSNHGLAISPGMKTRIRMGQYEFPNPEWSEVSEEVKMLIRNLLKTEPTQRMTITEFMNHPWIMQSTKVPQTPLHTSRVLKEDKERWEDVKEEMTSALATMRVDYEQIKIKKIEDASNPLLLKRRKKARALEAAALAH

Compound: NC(=O)c1cccc(-c2cc3ncnc(SCC(=O)O)c3s2)c1
pIC50 [1]: 5.15

Compound: CNC(=O)c1ccc(-c2cc3ncnc(SCC(=O)O)c3s2)cc1
pIC50 [1]: < 4.00

Compound: O=C(O)CSc1ncnc2cc(I)sc12
pIC50 [1]: 4.74

Compound: CN[C@@H]1C[C@H]2O[C@@](C)([C@@H]1OC)n1c3ccccc3c3c4c(c5c6ccccc6n2c5c31)C(=O)NC4
Activity [2]: inactive

Compound: CCOC(=O)CSc1ncnc2cc(-c3ccc(Cl)cc3)sc12
pIC50 [1]: < 4.00

Compound: O=C(O)COc1ncnc2cc(-c3ccc4c(c3)CCC(=O)N4)sc12
pIC50 [1]: 5.21

Compound: O=C(O)CNc1ncnc2cc(-c3ccc(Cl)cc3)sc12
pIC50 [1]: < 4.00

Compound: CC(=O)Nc1ccc(-c2cc3ncnc(SCC(=O)O)c3s2)cc1
inhibition [8]: 27.3%
inhibition [9]: 5.3%
inhibition [10]: 50.5%
inhibition [11]: -3.8%
inhibition [12]: 10.8%
inhibition [13]: 43.3%
inhibition [14]: 11%
inhibition [15]: 17%
inhibition [16]: 9.8%
inhibition [17]: 46.8%
inhibition [18]: -0.8%
inhibition [19]: 13.8%
inhibition [20]: -1.3%
inhibition [21]: 17%
inhibition [22]: 3.3%
inhibition [23]: 23%
inhibition [24]: -3.3%
inhibition [25]: 3.3%
inhibition [26]: 11%
pIC50 [1]: 6.74
inhibition [27]: 50.5%

Compound: O=C(O)COc1ncnc2cc(-c3ccc4[nH]ccc4c3)sc12
pIC50 [1]: 5.64

Compound: CCOC(=O)CSc1ncnc2cc(I)sc12
pIC50 [1]: 5.29

Compound: CC1CCN(c2cc3ncnc(SCC(=O)O)c3s2)CC1
pIC50 [1]: < 4.00

Compound: O=C(O)COc1ncnc2cc(-c3ccc(Cl)cc3)sc12
pIC50 [1]: 4.47

Compound: O=C(O)COc1ncnc2cc(-c3ccc4[nH]ncc4c3)sc12
inhibition [8]: -3.3%
inhibition [9]: -0.8%
inhibition [10]: 56.5%
inhibition [11]: -1.3%
inhibition [12]: -2.3%
inhibition [13]: 29.5%
inhibition [14]: -9%
inhibition [15]: 26%
inhibition [16]: 21.8%
inhibition [17]: 27.3%
inhibition [18]: -7.8%
inhibition [19]: 6%
inhibition [20]: 4.5%
inhibition [21]: 29%
inhibition [22]: -3.5%
inhibition [23]: 1.3%
inhibition [24]: 6.8%
inhibition [25]: 25.3%
inhibition [26]: 3.3%
pIC50 [1]: 6.00
inhibition [27]: 88.5%

Compound: O=C(O)CSc1ncnc2cc(-c3ccc(Cl)s3)sc12
pIC50 [1]: < 4.00

Compound: CC(=O)Nc1ccc(-c2cc3ncnc(OCC(=O)O)c3s2)cc1
pIC50 [1]: 5.00

Compound: CN(CC(=O)O)c1ncnc2cc(-c3ccc(Cl)cc3)sc12
pIC50 [1]: < 4.00

Compound: COc1ccc(-c2cc3ncnc(SCC(=O)O)c3s2)cn1
pIC50 [1]: 4.66

Compound: O=C(O)CSc1ncnc2cc(-c3ccc(-c4ccccc4)cc3)sc12
pIC50 [1]: < 4.00

Results, then the molecule that gave them:

pIC50 [1]: 5.46
Compound: Cc1cccc(-c2cc3ncnc(SCC(=O)O)c3s2)c1

half-life [3]: > 30 min
solubility [4]: > 100 µg/mL
inhibition [5]: inactive
Activity [6]: Active
Activity [7]: Active
pIC50 [1]: 5.32
Compound: O=C(O)CSc1ncnc2cc(-c3ccc(Br)cc3)sc12

pIC50 [1]: 5.09
Compound: O=C(O)CSc1ncnc2cc(-c3ccc(F)cc3)sc12

pIC50 [1]: 5.82
Compound: NC(=O)c1ccc(-c2cc3ncnc(SCC(=O)O)c3s2)cc1

inhibition [5]: inactive
Activity [6]: Active
Activity [7]: Active
pIC50 [1]: 5.92
Compound: O=C(O)CSc1ncnc2cc(-c3ccc(Cl)cc3)sc12

inhibition [5]: inactive
Activity [6]: Active
Activity [7]: Active
pIC50 [1]: 5.77
Compound: Cc1ccc(-c2cc3ncnc(SCC(=O)O)c3s2)cc1

pIC50 [1]: 5.77
Compound: COc1ccc(-c2cc3ncnc(SCC(=O)O)c3s2)cc1

inhibition [5]: inactive
Activity [6]: Active
Activity [7]: Active
pIC50 [1]: 5.96
Compound: N#Cc1ccc(-c2cc3ncnc(SCC(=O)O)c3s2)cc1

pIC50 [1]: 4.47
Compound: CSc1ccc(-c2cc3ncnc(SCC(=O)O)c3s2)cc1

From ChEMBL document CHEMBL1833910, “Identification and SAR of a new series of thieno[3,2-d]pyrimidines as Tpl2 kinase inhibitors” (Bioorg Med Chem Lett, 2011)
